The assay concerns the target T1, mouse TLR7 (Mus musculus, UniProt P58681).
T1 sequence (P58681 27-1050): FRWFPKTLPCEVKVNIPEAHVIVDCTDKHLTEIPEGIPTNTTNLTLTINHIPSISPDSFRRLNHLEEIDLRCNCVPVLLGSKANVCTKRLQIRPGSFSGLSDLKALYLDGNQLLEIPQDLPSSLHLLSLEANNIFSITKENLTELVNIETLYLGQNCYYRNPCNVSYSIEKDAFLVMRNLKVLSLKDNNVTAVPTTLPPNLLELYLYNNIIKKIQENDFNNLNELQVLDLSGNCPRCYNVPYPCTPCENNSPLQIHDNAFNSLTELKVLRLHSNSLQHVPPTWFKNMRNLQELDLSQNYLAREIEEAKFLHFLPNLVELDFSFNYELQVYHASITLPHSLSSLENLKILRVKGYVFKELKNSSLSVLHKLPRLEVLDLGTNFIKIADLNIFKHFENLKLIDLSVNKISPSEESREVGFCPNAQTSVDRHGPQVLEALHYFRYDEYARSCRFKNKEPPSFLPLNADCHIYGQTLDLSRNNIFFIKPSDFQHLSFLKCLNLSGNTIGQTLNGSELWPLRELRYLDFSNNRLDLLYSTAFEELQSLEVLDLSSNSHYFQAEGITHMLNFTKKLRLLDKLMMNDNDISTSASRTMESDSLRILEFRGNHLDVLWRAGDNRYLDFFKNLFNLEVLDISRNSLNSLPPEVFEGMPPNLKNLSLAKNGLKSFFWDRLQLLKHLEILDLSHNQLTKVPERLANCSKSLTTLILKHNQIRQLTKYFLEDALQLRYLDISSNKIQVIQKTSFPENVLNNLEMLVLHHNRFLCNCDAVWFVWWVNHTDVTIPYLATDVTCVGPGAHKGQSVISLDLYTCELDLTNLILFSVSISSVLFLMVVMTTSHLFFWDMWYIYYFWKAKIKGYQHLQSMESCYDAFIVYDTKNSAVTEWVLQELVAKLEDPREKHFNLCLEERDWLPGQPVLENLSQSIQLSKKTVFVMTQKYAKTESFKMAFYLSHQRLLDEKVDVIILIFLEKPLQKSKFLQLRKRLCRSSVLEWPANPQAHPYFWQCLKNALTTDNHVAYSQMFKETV
Nature of the assay: Short-term in vivo (STIV) assay: oral dosing, R848 s.c., plasma IL-6. On the set-up: female BALB/c mice (Jackson Labs, Bar Harbor, Me.) were dosed by oral gavage; tissue Jackson Labs; host or cells: living female BALB/c mice; plasma IL-6 after s.c. R848. In a few lines: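 Female BALB/c mice (6–8 weeks) dosed orally with compound in 0.5% aqueous methyl-cellulose at 33, 100 or 300 mg/kg; at various times afterwards given 15 ug R848 s.c. to stimulate TLR7. Plasma IL-6 measured by ELISA to gauge potency and duration of action.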

As for `C[C@@H]1CN(c2ccc(C#N)c3ncccc23)C[C@H](C(=O)NC2CCN(C)CC2)O1` [ER-899464, (2R,6R)-4-(8-cyanoquinolin-5-yl)-6-methyl-N-(1-methylpiperidin-4-yl)morpholine-2-carboxamide], under “33, 100 or 300 mg/kg oral, 6, 13 or 24 hours, FIG. 1”, the “short-term in vivo suppression of the TLR7 pathway (plasma IL-6)” value is listed as “suppression of the TLR7 pathway”. Besides, the “% Suppression vs. Vehicle” value amounted to 99% (6 h, 100 mg/kg) and 96% (13 h, 100 mg/kg).
As for `C[C@@H]1CN(c2ccc(C#N)c3ncccc23)C[C@H](CO)O1` [ER-885493, 5-((2R,6R)-2-(hydroxymethyl)-6-methylmorpholino)quinoline-8-carbonitrile], the “% Suppression vs. Vehicle” value runs as follows: (3 h, 22 mg/kg) 39%; (3 h, 67 mg/kg) 86%; (3 h, 200 mg/kg) 88%; (5 h, 22 mg/kg) 26%; (5 h, 67 mg/kg) 99%; (5 h, 200 mg/kg) 94%. The “% Suppression vs. Vehicle” value (12 h, 400 mg/kg) was determined as 76%; the “% Suppression vs. Vehicle” value (18 h, 22 mg/kg) is listed as 0%; the “% Suppression vs. Vehicle” value (18 h, 67 mg/kg) worked out at 5%; the “% Suppression vs. Vehicle” value (18 h, 200 mg/kg) is 29%.
With `CC1CN(c2ccc(C#N)c3ncccc23)CC(CN2CCC(N(C)C)CC2)O1` (stereo not shown) [ER-887725], the “% Suppression vs. Vehicle” value was 99% (3 h, 33 mg/kg); 99% (3 h, 100 mg/kg); 99% (3 h, 300 mg/kg); 99% (6 h, 33 mg/kg); 99% (6 h, 100 mg/kg); 99% (6 h, 300 mg/kg). Also, the “% Suppression vs. Vehicle” value reads like this: (19 h, 33 mg/kg) 90%; (19 h, 100 mg/kg) 91%; (19 h, 300 mg/kg) 99%.

The record behind these values is patent USRE47193E1, “Selectively substituted quinoline compounds” (EISAI R&D MANAGEMENT CO., LTD., priority 2013, dated 2019).
